Results from patent US10954214B2 (Janssen Pharmaceutica NV, priority 2016, dated 2021).

How the values were obtained:
[1] = target: full-length MALT1 protein (Strep-MALT1(1-824)-His) (Homo sapiens (Human), UniProt Q9UDY8); experiment: MALT1 Biochemical Protease Assay (Ac-LRSR-AMC substrate); settings: 10 nM FL MALT1, 200 μM Ac-LRSR-AMC, 4 h at RT; read-out: MALT1_Biochemical activity (Ac-LRSR-amc) IC50
Protocol: The tetrapeptide LRSR is coupled to AMC (7-amino-4-methylcoumarin) and provides a quenched, fluorescent substrate for the MALT1 protease (SM Biochemicals). […] Test compound concentrations ranged from 30 μM to 0.5 nM using 11 dilution steps (1:3). Background signal was measured from control wells containing assay buffer without enzyme which functions as low control (LC). High control (HC) values were generated using the reaction with enzyme but no compound treatment. Compounds were pre-incubated with MALT1 enzyme for 50 minutes at RT. […] The reaction was subsequently incubated for 4 h at RT and fluorescence was measured.
LC=Median of the low control values
An estimate of the slope of the plot in terms of the Hill coefficient was also obtained. IC50 Calculation:
[formula] With • UB=upper bound • LB=lower bound Used in “Lexis Dose Response Curve Fitting” Version 1.0.

[2] = system: IL6 secretion by TMD8 ABC-DLBCL cells; experiment: Human IL6 Mesoscale assay (TMD-8); format: cell-based; settings: Homo sapiens, TMD8; TMD-8 cells, 24 h
Protocol: (§1) NFKB signaling regulates the secretion of multiple cytokines, including IL6 and IL10. Secretion of the cytokines IL6 and IL10 by TMD8 or OCI-LY3 ABC-DLBCL cells was measured using a mesoscale assay. Inhibition of NFKB signaling by MALT1 or BTK inhibitors results in a decrease of IL6/10 secretion.
(§2) TMD8 or OCI-LY3 cells were propagated in RPMI-1640 (Sigma Aldrich) supplemented with 10% fetal bovine serum (HyClone), 1 mM sodium pyruvate (Invitrogen), 2 mM L-glutamine (Sigma Aldrich) and 1% PenStrep (Sigma Aldrich). Cell passage number should not exceed 30. Cells should be kept between 0.5-2.5 million cells per mL during culturing and cells should be supplemented every 2-3 days with fresh 50 μM beta-mercaptoenthanol. No beta-mercaptoethanol was used during the mesoscale assay.
(§3) For the Mesoscale assay, 100,000 TMD8 or OCI-LY3 cells were seeded per well into black-colored 96-well plates with clear bottom (Corning #3904) and test compounds were added in 9 dilution steps (1:2) ranging from 15 μM to 58.6 nM (final DMSO concentration 0.3%). DMSO control wells were used to determine the maximum signal (High Control (HC)). Treatment with the BTK inhibitor RN486 in a dose range from 30 nM to 131 pM (9 dilutions of 1:2) served as a positive control for NFKB pathway inhibition and was used to determine the maximum inhibition (Low Control (LC)). Compounds and cells were incubated for 24 h at 37° C. and 5% CO2 (assay volume is 150 μL). After 24 h of incubation 50 μL of the supernatant was transferred to a MSD plate (V-Plex Proinflammation Panel 1 (human) kit, Mesoscale (MSD)) and incubated for 2 h with vigorous shaking (600 rpm) at room temperature. Following incubation, plates were washed 3× with PBS+0.05% Tween-20 and 25 μL detection antibody solution (IL6 & IL10 antibodies in diluent 3 (MSD)) was added per well followed by 2 h of incubation with vigorous shaking (600 rpm) at room temperature. After 3× washes with PBS+0.05% Tween-20, plates were incubated with 150 μL 2× Read Buffer T and read on SECTOR imager.

[3] = system: IL10 secretion by TMD8 ABC-DLBCL cells; experiment: Human IL10 Mesoscale assay (TMD-8); format: cell-based; settings: Homo sapiens, TMD8; TMD-8 cells, 24 h
Protocol: as §1, §2, §3

Sequence of full-length MALT1 protein (Strep-MALT1(1-824)-His) (Q9UDY8 whole entry): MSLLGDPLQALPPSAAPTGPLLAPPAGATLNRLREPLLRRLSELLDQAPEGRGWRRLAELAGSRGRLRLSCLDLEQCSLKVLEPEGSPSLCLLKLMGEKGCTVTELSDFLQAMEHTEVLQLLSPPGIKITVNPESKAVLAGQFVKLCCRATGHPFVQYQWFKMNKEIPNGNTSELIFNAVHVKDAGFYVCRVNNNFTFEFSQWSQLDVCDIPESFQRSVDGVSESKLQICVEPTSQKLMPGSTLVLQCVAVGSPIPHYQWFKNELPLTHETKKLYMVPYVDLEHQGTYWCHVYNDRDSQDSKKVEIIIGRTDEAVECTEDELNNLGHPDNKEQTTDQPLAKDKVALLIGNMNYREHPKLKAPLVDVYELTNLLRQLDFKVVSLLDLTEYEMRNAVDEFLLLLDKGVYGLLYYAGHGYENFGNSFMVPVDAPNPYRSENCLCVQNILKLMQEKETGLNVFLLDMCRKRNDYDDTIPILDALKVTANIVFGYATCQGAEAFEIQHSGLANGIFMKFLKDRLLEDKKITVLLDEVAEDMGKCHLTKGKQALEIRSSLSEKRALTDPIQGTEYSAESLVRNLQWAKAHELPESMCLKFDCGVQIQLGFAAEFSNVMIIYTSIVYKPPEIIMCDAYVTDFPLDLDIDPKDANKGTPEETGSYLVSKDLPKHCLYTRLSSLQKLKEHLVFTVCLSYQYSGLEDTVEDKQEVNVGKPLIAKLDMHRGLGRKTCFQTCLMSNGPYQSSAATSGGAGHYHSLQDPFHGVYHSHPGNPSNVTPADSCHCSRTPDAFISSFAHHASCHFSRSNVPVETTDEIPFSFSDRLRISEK

Molecule | IC50 [1] | IC50 [2] | IC50 [3]
N#Cc1cc(NC(=O)c2cnn(-c3cncc4ccccc34)c2C(F)(F)F)cnc1C(=O)N1CCN(CCCCN)CC1 [Cpd 101, N-(6-(4-(4-aminobutyl)piperazine-1-carbonyl)-5-cyanopyridin-3-yl)-1-(isoquinolin-4-yl)-5-(trifluoromethyl)-1H-pyrazole-4-carboxamide] | 2.69 µM | – | –
CN1CCc2ccc(NC(=O)c3cnn(-c4cccc5ncccc45)c3C(F)(F)F)cc2C1=O [Cpd 212, N-(2-methyl-1-oxo-1,2,3,4-tetrahydroisoquinolin-7-yl)-1-(quinolin-5-yl)-5-(trifluoromethyl)-1H-pyrazole-4-carboxamide] | 11 µM | 1.02 µM | 0.513 µM
Nc1nccc(-c2ccc(NC(=O)c3cnn(-c4cccc5ccncc45)c3C(F)(F)F)cc2Cl)n1 [Cpd 14, N-(4-(2-aminopyrimidin-4-yl)-3-chlorophenyl)-1-(isoquinolin-8-yl)-5-(trifluoromethyl)-1H-pyrazole] | 4.57 µM | – | –
O=C(Nc1cnc(-n2nccn2)c(Cl)c1)c1cnn(-c2cccc3ncccc23)c1 [Cpd 60, N-(5-chloro-6-(2H-1,2,3-triazol-2-yl)pyridin-3-yl)-1-(quinolin-5-yl)-1H-pyrazole-4-carboxamide] | 11.5 µM | – | –
O=C(Nc1ccc(-n2cccn2)c(Cl)c1)c1cnn(-c2cccc3ccncc23)c1C(F)(F)F [Cpd 12, N-(3-chloro-4-(1H-pyrazol-1-yl)phenyl)-1-(isoquinolin-8-yl)-5-(trifluoromethyl)-1H-pyrazole-4-carboxamide] | 4.07 µM | – | –
O=C(Nc1cnc(-n2nccn2)c(Cl)c1)c1cnn(-c2cc3ncccc3cc2F)c1C(F)(F)F [Cpd 67, N-(5-Chloro-6-(2H-1,2,3-triazol-2-yl)pyridin-3-yl)-1-(6-fluoroquinolin-7-yl)-5-(trifluoromethyl)-1H-pyrazole-4-carboxamide] | 2.04 µM | – | –
O=C(Nc1ccc(-n2nccn2)nc1)c1cnn(-c2cncc3ccccc23)c1C(F)(F)F [Cpd 71, N-(6-(2H-1,2,3-triazol-2-yl)pyridin-3-yl)-1-(isoquinolin-4-yl)-5-(trifluoromethyl)-1H-pyrazole-4-carboxamide] | 1.58 µM | – | –
O=C(Nc1ccnc(C(F)(F)F)c1)c1cnn(-c2cccc3c(=O)[nH]ccc23)c1C(F)(F)F [Cpd 158, 1-(1-oxo-1,2-dihydroisoquinolin-5-yl)-5-(trifluoromethyl)-N-(2-(trifluoromethyl)pyridin-4-yl)-1H-pyrazole-4-carboxamide] | – | > 1.51 µM | 0.38 µM
O=C(Nc1cnc(-n2nccn2)c(Cl)c1)c1cnn(-c2cncc3ccccc23)c1 [Cpd 76, N-(5-chloro-6-(2H-1,2,3-triazol-2-yl)pyridin-3-yl)-1-(isoquinolin-4-yl)-1H-pyrazole-4-carboxamide] | 8.32 µM | – | –
N#Cc1ncc(NC(=O)c2cnn(-c3cccc4ccncc34)c2C(F)(F)F)cc1C(F)(F)F [Cpd 13, N-(6-cyano-5-(trifluoromethyl)pyridin-3-yl)-1-(isoquinolin-8-yl)-5-(trifluoromethyl)-1H-pyrazole-4-carboxamide] | 6.03 µM | – | –
O=C(Nc1cnc(-n2cccn2)c(Cl)c1)c1cnn(-c2cccc3ccncc23)c1C(F)(F)F [Cpd 15, N-(5-chloro-6-(1H-pyrazol-1-yl)pyridin-3-yl)-1-(isoquinolin-8-yl)-5-(trifluoromethyl)-1H-pyrazole-4-carboxamide] | 4.17 µM | – | –
N-(3-chloro-4-(1H-1,2,3-triazol-1-yl)phenyl)-1-(isoquinolin-4-yl)-5-(trifluoromethyl)-1H-pyrazole-4-carboxamide [Cpd 18] | 2.29 µM | – | –
O=C(Nc1cnc(N2CCCS2(=O)=O)c(Cl)c1)c1cnn(-c2cccc3ccncc23)c1C(F)(F)F [Cpd 20, N-(5-chloro-6-(1,1-dioxidoisothiazolidin-2-yl)pyridin-3-yl)-1-(isoquinolin-8-yl)-5-(trifluoromethyl)-1H-pyrazole-4-carboxamide] | 9.55 µM | – | –
Cc1ncnn1-c1ccc(NC(=O)c2cnn(-c3cccc4ccncc34)c2C(F)(F)F)cc1Cl [Cpd 31, N-(3-chloro-4-(5-methyl-1H-1,2,4-triazol-1-yl)phenyl)-1-(isoquinolin-8-yl)-5-(trifluoromethyl)-1H-pyrazole-4-carboxamide] | 8.91 µM | – | –
Cc1ncn(-c2ccc(NC(=O)c3cnn(-c4cccc5ccncc45)c3C(F)(F)F)cc2Cl)n1 [Cpd 29, N-(3-chloro-4-(3-methyl-1H-1,2,4-triazol-1-yl)phenyl)-1-(isoquinolin-8-yl)-5-(trifluoromethyl)-1H-pyrazole-4-carboxamide] | 2.46 µM | – | –
Cc1ncn(-c2ncc(NC(=O)c3cnn(-c4cccc5ccncc45)c3C(F)(F)F)cc2Cl)n1 [Cpd 30, N-(5-chloro-6-(3-methyl-1H-1,2,4-triazol-1-yl)pyridin-3-yl)-1-(isoquinolin-8-yl)-5-(trifluoromethyl)-1H-pyrazole-4-carboxamide] | 5.01 µM | – | –

More lines, in order of falling IC50 [1], values ahead:

IC50 [1] | IC50 [2] | IC50 [3] | Molecule
1.45 µM | – | – | Cc1ccc2c(-n3ncc(C(=O)Nc4cnc(-n5nccn5)c(Cl)c4)c3C(F)(F)F)cccc2n1 [Cpd 37, N-(5-Chloro-6-(2H-1,2,3-triazol-2-yl)pyridin-3-yl)-1-(2-methylquinolin-5-yl)-5-(trifluoromethyl)-1H-pyrazole-4-carboxamide]
1.15 µM | 6.46 µM | 0.55 µM | N#Cc1cnnn1-c1ncc(NC(=O)c2cnn(-c3cccc4ncccc34)c2C(F)(F)F)cc1Cl [Cpd 227, N-(5-chloro-6-(5-cyano-1H-1,2,3-triazol-1-yl)pyridin-3-yl)-1-(quinolin-5-yl)-5-(trifluoromethyl)-1H-pyrazole-4-carboxamide]
1.15 µM | – | – | Cc1c(C(=O)Nc2cnc(-n3nccn3)c(Cl)c2)cnn1-c1ccnc2ccccc12 [Cpd 64, N-(5-chloro-6-(2H-1,2,3-triazol-2-yl)pyridin-3-yl)-5-methyl-1-(quinolin-4-yl)-1H-pyrazole-4-carboxamide]
0.724 µM | – | – | CN1CCC(Oc2ncc(NC(=O)c3cnn(-c4cncc5ccccc45)c3C(F)(F)F)cc2C#N)CC1 [Cpd 80, N-(5-cyano-6-((1-methylpiperidin-4-yl)oxy)pyridin-3-yl)-1-(isoquinolin-4-yl)-5-(trifluoromethyl)-1H-pyrazole-4-carboxamide]
0.661 µM | 0.324 µM | 0.562 µM | Cn1ncc2c(-n3ncc(C(=O)Nc4cnc(-n5nccn5)c(C#N)c4)c3C(F)(F)F)cccc21 [Cpd 239, N-(5-cyano-6-(2H-1,2,3-triazol-2-yl)pyridin-3-yl)-1-(1-methyl-1H-indazol-4-yl)-5-(trifluoromethyl)-1H-pyrazole-4-carboxamide]
0.417 µM | – | – | N#Cc1cc(NC(=O)c2cnn(-c3cncc4ccccc34)c2C(F)(F)F)ccn1 [Cpd 77, N-(2-cyanopyridin-4-yl)-1-(isoquinolin-4-yl)-5-(trifluoromethyl)-1H-pyrazole-4-carboxamide]
0.316 µM | > 15.1 µM | 8.71 µM | O=C(Nc1ccnc(C(F)(F)F)c1)c1cnn(-c2cccc3nccn23)c1C(F)(F)F [Cpd 208, 1-(imidazo[1,2-a]pyridin-5-yl)-5-(trifluoromethyl)-N-(2-(trifluoromethyl)pyridin-4-yl)-1H-pyrazole-4-carboxamide]
0.083 µM | – | – | COC(=O)c1ncc(NC(=O)c2ncc(NC(=O)c3cnn(-c4cncc5ccccc45)c3C(F)(F)F)cc2Cl)cc1Cl [Cpd 44, Methyl 3-chloro-5-(3-chloro-5-(1-(isoquinolin-4-yl)-5-(trifluoromethyl)-1H-pyrazole-4-carboxamido)picolinamido)picolinate]
0.018 µM | 0.186 µM | 0.162 µM | Cc1nc(-n2nccn2)c(Br)cc1NC(=O)c1cnn(-c2cccc3c(=O)[nH]ccc23)c1C(F)(F)F [Cpd 185, N-(5-bromo-2-methyl-6-(2H-1,2,3-triazol-2-yl)pyridin-3-yl)-1-(1-oxo-1,2-dihydroisoquinolin-5-yl)-5-(trifluoromethyl)-1H-pyrazole-4-carboxamide]
